Values of other authors in patent US20250295594A1, “ENTERAL SUSTAINED-RELEASE SUGAR ALCOHOL ADDITIVE AND PREPARATION METHOD AND APPLICATION THEREOF” (ZHEJIANG HUAKANG PHARMACEUTICAL CO., LTD., priority 2020, published 2025).

Conditions: existing experimental data, unformulated sugar / sugar alcohol

absorption rate of the small intestine [%]	Compound
70	O=C[C@H](O)[C@@H](O)[C@@H](O)CO [arabinose, L-arabinose]
60	OC[C@@H](O)[C@H](O)[C@@H](O)CO [xylitol]
